Data as given in PubChem BioAssay AID2060894 (Molecular Pharmacology Branch, DTP, NCI, 2025).

System: K12877-001-R-J1-PDC complex spheroid viability
Test: Anticancer human tumor K12877-001-R-J1-PDC patient-derived lung adenocarcinoma cell line growth inhibition [RAS]
Settings: for IC50: curve of first compound; for viability, T/C: stronger effect = lower value
Method in brief: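 Multi-cell-type spheroids: tumor cells plus HUVEC endothelial cells and mesenchymal stem cells. RAS-pathway inhibitors were combined with targeted agents, each dosed in half-log steps down from clinical Cmax, or from 10 microM when Cmax was unknown.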

[1] = second compound 0.000949 µM, first compound 0.00316 µM
[2] = second compound 0.000949 µM, first compound 0.01 µM
[3] = second compound 0.000949 µM, first compound 0.0316 µM
[4] = second compound 0.000949 µM, first compound 0.1 µM
[5] = second compound 0.003 µM, first compound 0.00316 µM
[6] = second compound 0.003 µM, first compound 0.01 µM
[7] = second compound 0.003 µM, first compound 0.0316 µM
[8] = second compound 0.003 µM, first compound 0.1 µM
[9] = second compound 0.00949 µM, first compound 0.00316 µM
[10] = second compound 0.00949 µM, first compound 0.01 µM
[11] = second compound 0.00949 µM, first compound 0.0316 µM
[12] = second compound 0.00949 µM, first compound 0.1 µM
[13] = second compound 0.03 µM, first compound 0.00316 µM
[14] = second compound 0.03 µM, first compound 0.01 µM
[15] = second compound 0.03 µM, first compound 0.0316 µM
[16] = second compound 0.03 µM, first compound 0.1 µM
[17] = second compound 0.0949 µM, first compound 0.00316 µM
[18] = second compound 0.0949 µM, first compound 0.01 µM
[19] = second compound 0.0949 µM, first compound 0.0316 µM
[20] = second compound 0.0949 µM, first compound 0.1 µM
[21] = second compound 0.3 µM, first compound 0.00316 µM
[22] = second compound 0.3 µM, first compound 0.01 µM
[23] = second compound 0.3 µM, first compound 0.0316 µM
[24] = second compound 0.3 µM, first compound 0.1 µM
[25] = second compound 0.000949 µM, first compound 0.316 µM
[26] = second compound 0.000949 µM, first compound 1 µM
[27] = second compound 0.000949 µM, first compound 3.16 µM
[28] = second compound 0.000949 µM, first compound 10 µM
[29] = second compound 0.003 µM, first compound 0.316 µM
[30] = second compound 0.003 µM, first compound 1 µM
[31] = second compound 0.003 µM, first compound 3.16 µM
[32] = second compound 0.003 µM, first compound 10 µM
[33] = second compound 0.00949 µM, first compound 0.316 µM
[34] = second compound 0.00949 µM, first compound 1 µM
[35] = second compound 0.00949 µM, first compound 3.16 µM
[36] = second compound 0.00949 µM, first compound 10 µM
[37] = second compound 0.03 µM, first compound 0.316 µM
[38] = second compound 0.03 µM, first compound 1 µM
[39] = second compound 0.03 µM, first compound 3.16 µM
[40] = second compound 0.03 µM, first compound 10 µM
[41] = second compound 0.0949 µM, first compound 0.316 µM
[42] = second compound 0.0949 µM, first compound 1 µM
[43] = second compound 0.0949 µM, first compound 3.16 µM
[44] = second compound 0.0949 µM, first compound 10 µM
[45] = second compound 0.3 µM, first compound 0.316 µM
[46] = second compound 0.3 µM, first compound 1 µM
[47] = second compound 0.3 µM, first compound 3.16 µM
[48] = second compound 0.3 µM, first compound 10 µM
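Also: spheroids exposed to agents for one week before readout.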
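For viability, T/C in this document: tumour cells co-cultured with HUVEC and mesenchymal stem cells in spheroids.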

`CC(C)n1nc(-c2ccc3oc(N)nc3c2)c2c(N)ncnc21` + CCn1c(-c2cc(N3CCN(C)CC3)cnc2C(C)OC)c2c3cc(ccc31)-c1csc(n1)CC(NC(=O)C1CC1C)C(=O)N1CCCC(N1)C(=O)OCC(C)(C)C2 gave an IC50 (second compound 0.000949 µM) of 28.4 nM, an IC50 (second compound 0.003 µM) of 23.4 nM and an IC50 (second compound 0.00949 µM) of 17.7 nM. It also gave an IC50 (second compound 0.03 µM) of 13.9 nM, an IC50 (second compound 0.0949 µM) of 9.11 nM and an IC50 (second compound 0.3 µM) of 6.13 nM. For the same compound, the viability, T/C (second compound 0.000949 µM, first compound 0.000316 µM) was 73.8%, the viability, T/C (second compound 0.000949 µM, first compound 0.001 µM) was 74.5% and the viability, T/C [1] was 95.7%. The viability, T/C [2] was 104%, the viability, T/C [3] was 46.1% and the viability, T/C [4] was 24.8%. For the same compound, the viability, T/C (second compound 0.003 µM, first compound 0.000316 µM) was 71.2%, the viability, T/C (second compound 0.003 µM, first compound 0.001 µM) was 74% and the viability, T/C [5] was 69.9%. It also gave a viability, T/C [6] of 90.8%, a viability, T/C [7] of 40.6% and a viability, T/C [8] of 22.1%. For the same compound, the viability, T/C (second compound 0.00949 µM, first compound 0.000316 µM) was 64.1%, the viability, T/C (second compound 0.00949 µM, first compound 0.001 µM) was 65.4% and the viability, T/C [9] was 76.6%. The viability, T/C [10] was 75.4%, the viability, T/C [11] was 29.3% and the viability, T/C [12] was 17.3%. The viability, T/C (second compound 0.03 µM, first compound 0.000316 µM) was 77.1%, the viability, T/C (second compound 0.03 µM, first compound 0.001 µM) was 92.2% and the viability, T/C [13] was 110%. For the same compound, the viability, T/C [14] was 61.1%, the viability, T/C [15] was 28% and the viability, T/C [16] was 16.2%. The viability, T/C (second compound 0.0949 µM, first compound 0.000316 µM) was 103%, the viability, T/C (second compound 0.0949 µM, first compound 0.001 µM) was 102% and the viability, T/C [17] was 76.5%. The viability, T/C [18] was 49.1%, the viability, T/C [19] was 22.3% and the viability, T/C [20] was 13.6%. It also gave a viability, T/C (second compound 0.3 µM, first compound 0.000316 µM) of 79.1%, a viability, T/C (second compound 0.3 µM, first compound 0.001 µM) of 92.5% and a viability, T/C [21] of 60.3%. It also gave a viability, T/C [22] of 40.3%, a viability, T/C [23] of 19.3% and a viability, T/C [24] of 11.7%.

Compound `CC1(O)CCCC1n1c(=O)c(C(F)F)cc2cnc(NC3CCN(S(C)(=O)=O)CC3)nc21` (stereo not drawn) + CCn1c(-c2cc(N3CCN(C)CC3)cnc2C(C)OC)c2c3cc(ccc31)-c1csc(n1)CC(NC(=O)C1CC1C)C(=O)N1CCCC(N1)C(=O)OCC(C)(C)C2 has an IC50 (second compound 0.000949 µM) of 4010 nM, an IC50 (second compound 0.003 µM) of 1990 nM and an IC50 (second compound 0.00949 µM) of 1840 nM. For the same compound, the IC50 (second compound 0.03 µM) was 889 nM, the IC50 (second compound 0.0949 µM) was 545 nM and the IC50 (second compound 0.3 µM) was 382 nM. It also gave a viability, T/C [3] of 95.9%, a viability, T/C [4] of 78% and a viability, T/C [25] of 80.6%. It also gave a viability, T/C [26] of 75.6%, a viability, T/C [27] of 64.5% and a viability, T/C [28] of 3.86%. It also gave a viability, T/C [7] of 68.9%, a viability, T/C [8] of 74% and a viability, T/C [29] of 64.5%. It also gave a viability, T/C [30] of 56.2%, a viability, T/C [31] of 46.3% and a viability, T/C [32] of 3.15%. It also gave a viability, T/C [11] of 69.5%, a viability, T/C [12] of 75.4% and a viability, T/C [33] of 46.4%. For the same compound, the viability, T/C [34] was 56.5%, the viability, T/C [35] was 48.5% and the viability, T/C [36] was 2.9%. It also gave a viability, T/C [15] of 98.8%, a viability, T/C [16] of 82% and a viability, T/C [37] of 47.6%. For the same compound, the viability, T/C [38] was 58.9%, the viability, T/C [39] was 46% and the viability, T/C [40] was 2.97%. The viability, T/C [19] was 92%, the viability, T/C [20] was 62.1% and the viability, T/C [41] was 45.7%. For the same compound, the viability, T/C [42] was 50.4%, the viability, T/C [43] was 41.6% and the viability, T/C [44] was 2.68%. The viability, T/C [23] was 76.7%, the viability, T/C [24] was 58% and the viability, T/C [45] was 41.7%. The viability, T/C [46] was 49.6%, the viability, T/C [47] was 43.6% and the viability, T/C [48] was 2.64%.

`CCN1CCN(Cc2ccc(Nc3ncc(F)c(-c4cc(F)c5nc(C)n(C(C)C)c5c4)n3)nc2)CC1` + CCn1c(-c2cc(N3CCN(C)CC3)cnc2C(C)OC)c2c3cc(ccc31)-c1csc(n1)CC(NC(=O)C1CC1C)C(=O)N1CCCC(N1)C(=O)OCC(C)(C)C2 was tested, and the IC50 (second compound 0.000949 µM) was over 1000 nM, the IC50 (second compound 0.003 µM) was 803 nM and the IC50 (second compound 0.00949 µM) was 578 nM. The IC50 (second compound 0.03 µM) was 469 nM, the IC50 (second compound 0.0949 µM) was 516 nM and the IC50 (second compound 0.3 µM) was 376 nM. It also gave a viability, T/C [1] of 79.9%, a viability, T/C [2] of 84.1% and a viability, T/C [3] of 85%. It also gave a viability, T/C [4] of 92.5%, a viability, T/C [25] of 86.8% and a viability, T/C [26] of 73.2%. The viability, T/C [5] was 73.7%, the viability, T/C [6] was 72.1% and the viability, T/C [7] was 72.7%. It also gave a viability, T/C [8] of 69.3%, a viability, T/C [29] of 70.2% and a viability, T/C [30] of 45.3%. The viability, T/C [9] was 61.7%, the viability, T/C [10] was 61.3% and the viability, T/C [11] was 68.9%. It also gave a viability, T/C [12] of 70.8%, a viability, T/C [33] of 72% and a viability, T/C [34] of 34.6%. It also gave a viability, T/C [13] of 81.7%, a viability, T/C [14] of 86.8% and a viability, T/C [15] of 74.3%. The viability, T/C [16] was 89.8%, the viability, T/C [37] was 61.5% and the viability, T/C [38] was 28.1%. The viability, T/C [17] was 106%, the viability, T/C [18] was 97.9% and the viability, T/C [19] was 99.6%. For the same compound, the viability, T/C [20] was 86.5%, the viability, T/C [41] was 63% and the viability, T/C [42] was 32.3%. It also gave a viability, T/C [21] of 97%, a viability, T/C [22] of 86.2% and a viability, T/C [23] of 86.5%. It also gave a viability, T/C [24] of 76.2%, a viability, T/C [45] of 53.1% and a viability, T/C [46] of 26.1%.

`C[C@@H](NC(=O)c1ncnc(N)c1Cl)c1ncc(C(=O)Nc2cc(C(F)(F)F)c(Cl)cn2)s1` + CCn1c(-c2cc(N3CCN(C)CC3)cnc2C(C)OC)c2c3cc(ccc31)-c1csc(n1)CC(NC(=O)C1CC1C)C(=O)N1CCCC(N1)C(=O)OCC(C)(C)C2 showed an IC50 (second compound 0.000949 µM) of over 10000 nM, an IC50 (second compound 0.003 µM) of over 10000 nM and an IC50 (second compound 0.00949 µM) of over 10000 nM. It also gave an IC50 (second compound 0.03 µM) of over 10000 nM, an IC50 (second compound 0.0949 µM) of over 10000 nM and an IC50 (second compound 0.3 µM) of over 10000 nM. It also gave a viability, T/C [3] of 85.3%, a viability, T/C [4] of 85.3% and a viability, T/C [25] of 81.8%. It also gave a viability, T/C [26] of 84.3%, a viability, T/C [27] of 89.9% and a viability, T/C [28] of 75.3%. For the same compound, the viability, T/C [7] was 72.5%, the viability, T/C [8] was 78.3% and the viability, T/C [29] was 70.8%. For the same compound, the viability, T/C [30] was 83.6%, the viability, T/C [31] was 77.2% and the viability, T/C [32] was 83.2%. The viability, T/C [11] was 66.4%, the viability, T/C [12] was 62.7% and the viability, T/C [33] was 67.8%. It also gave a viability, T/C [34] of 69.5%, a viability, T/C [35] of 70.1% and a viability, T/C [36] of 68.8%. It also gave a viability, T/C [15] of 62.2%, a viability, T/C [16] of 58.3% and a viability, T/C [37] of 60%. For the same compound, the viability, T/C [38] was 68.3%, the viability, T/C [39] was 66.3% and the viability, T/C [40] was 112%. It also gave a viability, T/C [19] of 101%, a viability, T/C [20] of 89.7% and a viability, T/C [41] of 97.8%. It also gave a viability, T/C [42] of 106%, a viability, T/C [43] of 129% and a viability, T/C [44] of 121%. The viability, T/C [23] was 100%, the viability, T/C [24] was 100% and the viability, T/C [45] was 103%. For the same compound, the viability, T/C [46] was 111%, the viability, T/C [47] was 97.8% and the viability, T/C [48] was 111%.
